Assay results taken from patent US11354990B2, “Treatment of kidney diseases associated with elevated AVP” (United States Government As Represented By The Department …, priority 2017, dated 2022).
Entries after “also recorded” stand apart in the source; their conditions may differ.

Columns and labels:
P2Y12 receptor = molecular target: T1, P2Y12 receptor (Rattus norvegicus, UniProt Q9EPX4); experiment: Blockade of P2Y12 receptor in primary cultures of rat hypothalamic cells: expression of AVP; assay type: cell-based
T1 construct: endogenous in cells; host or cells: primary cultures of rat hypothalamic cells
T1 sequence (Q9EPX4 whole entry): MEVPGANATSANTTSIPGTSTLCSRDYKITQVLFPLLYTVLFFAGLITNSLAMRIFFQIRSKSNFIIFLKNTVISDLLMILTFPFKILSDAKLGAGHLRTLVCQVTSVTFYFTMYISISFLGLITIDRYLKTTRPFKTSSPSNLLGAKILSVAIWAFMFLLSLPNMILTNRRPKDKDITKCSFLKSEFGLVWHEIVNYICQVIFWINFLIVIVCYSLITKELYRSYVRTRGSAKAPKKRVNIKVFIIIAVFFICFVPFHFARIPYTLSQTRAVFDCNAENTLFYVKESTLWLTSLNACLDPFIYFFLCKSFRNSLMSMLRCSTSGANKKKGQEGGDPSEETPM

B6D2 mice = experiment: Ticagrelor in diet (or clopidogrel in drinking water) for 14 days: urinary AVP, urine output and urine osmolality in mice; assay type: in vivo; details: for effects shown in FIGS. 2-5 (urine output, urine osmolality, urinary AVP): comparison with other P2Y12 receptor antagonists
Procedure: The study evaluated the effect of increasing doses of ticagrelor from 0.05% to 0.25% (incremental doses of 0.05, 0.10, 0.15, 0.20 and 0.25%) administered to mice for 2 weeks and compared them with that obtained by administering increasing doses of clopidogrel bisulfate (20, 40 or 80 mg/kg bw/day). For this study adult B6D2 mice were used. Different doses of ticagrelor were administered embedded in diet. Clopidogrel bisulfate (Plavix® tablets) were powdered and dissolved in drinking water for administration. The concentration of clopidogrel in the water was adjusted on daily basis based on the water consumption by mice on the previous day.
Rodent diets containing ticagrelor at different concentrations were prepared as follows. 15 grams of ticagrelor was shipped to MP Biomedicals (Solon, Ohio, USA) for custom preparation of 10 kg of rodent chow in pellet form containing 0.15% ticagrelor. The custom-made diet was received and was stored at +4° C. Later in the study, for the preparation of diets containing 0.20% or 0.25%, the above custom-prepared diet (containing 0.15% ticagrelor) was used as a base and the required amount of ticagrelor was added. Diets containing 0.05 and 0.10% ticagrelor were prepared de novo.
Clopidogrel bisulfate was administered orally by mixing finely powdered Plavix® tablets (Bristol-Myers Squibb, New York, N.Y.) in drinking water. The concentration of the drug in the drinking water was adjusted daily based on the water consumption of the animals on the previous day. Three different doses (20, 40 and 80 mg/kg bw/day) were administered. Since it is not possible to work with more than 15 to 20 mice in metabolic cages at any given time, the experimental animals were handled in two batches in a staggered fashion. Urine samples were collected on day 0 (prior to the experimental period), on days 6/7 (end of the first week) and days 13/14 (end of the second week). Terminal blood samples were collected from the posterior vena cava at the time of euthanasia. Kidney tissues were collected and cortex and medulla were separated by sharp dissection and flash frozen for analysis. Within a few minutes after collection, blood samples were centrifuged at +4° C. and plasma was separated and frozen. Urinary AVP levels were assayed by ELISA.
(§1) Different doses of ticagrelor (0.05 to 0.25%) were administered to mice embedded in standard rodent chow (w/w) for 14 days. Twenty-four hour urine samples were collected from the mice by placing them in individual plastic metabolic cages (1 mouse/cage) for two consecutive days, with free access to food and water. Urine samples in the metabolic cages were collected under a layer of light mineral oil. The volumes of urine samples collected were recorded. Urine samples were centrifuged to remove particulate matter. Clear supernatants thus obtained were used for analysis. Blood samples were collected at the time of euthanasia on day 14, as per the protocol recommended by the AstraZeneca for samples destined for the determination of plasma ticagrelor. Briefly, under isoflourane anesthesia, blood from the posterior vena cava was collected and transferred to EDTA K-coated microtubes (Microvette®, Sarstedt, Nümbrecht, Germany). Plasma was separated by centrifugation within 30 min after collection and frozen at −80° C. The frozen samples were shipped in dry ice by FedEx to AstraZeneca (Mölndal, Sweden). At AstraZeneca R&D, the plasma concentration of ticagrelor was determined by liquid chromatography tandem mass spectrometry (LC-MS/MS). FIGS. 1-5 show the data obtained.

[1] = patients; long-term administration; cited from earlier work
[2] = test system: cAMP production in primary cultures of rat IMCD cells; experiment: dDAVP-induced cAMP production in primary cultures of rat IMCD cells (EIA); assay type: cell-based
Procedure: FIG. 7 is a graph showing the effect of ticagrelor on dDAVP-induced cAMP production in primary cultures of rat IMCD cells: Cells were incubated for 48 h with ticagrelor (5 μM). During the second 24 hours, cells were challenged with dDAVP (20 nM).
dDAVP acting through the vasopressin V2 receptor in IMCD cells stimulates the production of cAMP (FIG. 7). In the collecting ducts in vivo, in the short-term AVP increases cellular cAMP levels to cause translocation of AQP2 protein from the subapical vesicles to apical plasma membrane, and thus increase the water permeability of the apical plasma membrane, the rate limiting barrier for transepithelial water transport. In the long-term, increased cellular cAMP levels induce transcriptional activation of AQP2 and other genes. […] Primary cultures of rat IMCD cells were prepared and incubated with desmopressin with/without ticagrelor (5 μM) as described above. For cAMP assay, the medium was gently aspirated, 200 μl of 0.1 M HCl was added to each insert and incubated for 20 min at room temperature. Then cells were scrapped off the semi-permeable support and lysed by pipetting up and down. The cell lysate was centrifuged at 1,000×g for 10 min. cAMP concentration in the supernatant was determined by an EIA kit (Cayman Chemical Co.) and normalized to the protein content of the wells (Pierce™ BCA Protein Assay Kit, Rockford, Ill.).

[3] = Plasma concentration of ticagrelor by LC-MS/MS in mice fed ticagrelor; assay type: in vivo; details: corresponding to a dose of 0.15% or above in food, day 14
Procedure: as §1

AQP3 = experiment: dDAVP-induced AQP3 mRNA expression in primary cultures of rat IMCD cells (real-time PCR); assay type: cell-based
Procedure: (§2) FIGS. 6A-C show the effect of ticagrelor on the mRNA expression of AQP2 (A) and AQP3 (B) relative to the expression R3-actin and the effect of ticagrelor on the mRNA expression of AQP2 relative to GAPDH (C) in primary cultures of rat inner medullary collecting duct (IMCD) cells. Cells were incubated with different concentrations of ticagrelor (0.5 to 25 μM) for 48 hours. During the second 24 hours, the cells were challenged with dDAVP (20 nM). The numbers in parentheses above the bars indicate the number of culture wells.
(§3) Primary cultures of rat inner medullary collecting duct (IMCD) cells were prepared. When the cells became 70-80% confluent, the medium was changed to relative starvation mode (low FBS), and used for testing the effect of Desmopressin (dDAVP), a V2 receptor-selective analogue of AVP, and/or ticagrelor. Cells were incubated for 48 h with ticagrelor ranging from 1.5 to 25 μM. During the second 24 hours, cells were challenged with dDAVP (20 nM). At the end of the incubation period, cells were harvested, RNA extracted, reverse transcribed and subjected to real-time PCR to determine the expression of AQP2 and AQP3 genes relative to the expression of the housekeeping genes (β-actin or GAPDH).
(§4) Results (FIGS. 6A-C) are presented as percent of the values in control incubations without any addition of agents. FIGS. 6A-C show the effect of different concentrations of ticagrelor on dDAVP (20 nM)-induced AQP2 or AQP3 expression relative to p-actin expression in primary cultures of rat IMCD cells. Two independent assays on primary cultures of IMCD cells derived from two different rats at different times were used, and the data obtained were pooled for analysis and presentation in the graphs. Data were analyzed by analysis of variance (ANOVA) followed by Tukey-Kramer Multiple Comparison Test. The numbers in parentheses above the bars indicate the number of culture wells.

AQP2 = experiment: dDAVP-induced AQP2 mRNA expression in primary cultures of rat IMCD cells (real-time PCR); assay type: cell-based
Procedure: as §2, §3, §4

[4] = test system: medullary collecting duct cells; experiment: Proliferation of medullary collecting duct cells; assay type: cell-based; details: increasing concentrations of ticagrelor
rodent models of ADPKD = details: cited from earlier work; for cystogenesis: rodent models of ADPKD, by reducing cAMP production in the kidney
[5] = test system: lithium-induced NDI in rodent models; details: cited from earlier work
CYP3A4 system = CYP3A4 system (Homo sapiens, UniProt P08684); details: cited from earlier work
Chain of CYP3A4 system (P08684 whole entry): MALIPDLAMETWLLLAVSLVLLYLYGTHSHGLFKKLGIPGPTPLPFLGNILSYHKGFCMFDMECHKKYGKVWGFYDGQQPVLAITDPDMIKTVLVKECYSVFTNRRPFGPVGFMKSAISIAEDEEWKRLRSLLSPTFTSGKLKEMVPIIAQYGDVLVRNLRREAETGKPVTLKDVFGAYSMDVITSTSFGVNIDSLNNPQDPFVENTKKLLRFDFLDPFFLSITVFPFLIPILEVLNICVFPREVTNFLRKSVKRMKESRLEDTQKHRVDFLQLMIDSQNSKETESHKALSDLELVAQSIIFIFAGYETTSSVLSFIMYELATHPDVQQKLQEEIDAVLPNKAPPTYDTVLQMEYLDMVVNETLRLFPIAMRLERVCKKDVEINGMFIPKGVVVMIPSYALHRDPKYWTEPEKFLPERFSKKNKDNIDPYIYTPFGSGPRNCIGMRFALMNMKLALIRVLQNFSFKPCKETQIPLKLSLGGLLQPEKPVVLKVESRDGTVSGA

ADPKD = details: clinical trials; cited from earlier work
vasopressin V2 receptor = vasopressin V2 receptor (Homo sapiens, UniProt P30518); details: chronic blockade of vasopressin V2 receptor; cited from earlier work
Chain of vasopressin V2 receptor (P30518 whole entry, species assumed): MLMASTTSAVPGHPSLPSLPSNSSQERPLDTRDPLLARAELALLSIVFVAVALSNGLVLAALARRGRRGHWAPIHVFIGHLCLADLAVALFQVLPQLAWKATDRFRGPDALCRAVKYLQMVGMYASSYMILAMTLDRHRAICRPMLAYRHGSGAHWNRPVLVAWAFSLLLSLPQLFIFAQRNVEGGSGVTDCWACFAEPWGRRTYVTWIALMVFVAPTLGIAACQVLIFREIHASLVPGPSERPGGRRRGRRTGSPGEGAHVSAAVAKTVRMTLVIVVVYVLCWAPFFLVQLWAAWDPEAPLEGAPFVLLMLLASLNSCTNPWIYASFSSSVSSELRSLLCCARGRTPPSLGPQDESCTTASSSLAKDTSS

[6] = in vivo; cited from earlier work
[7] = test system: DBA/2FG-pcy mouse model of ADPKD; details: tolvaptan concentrations between 0.01% and 0.30% in food; cited from earlier work
[8] = different concentrations of ticagrelor 48 h, dDAVP 20 nM during second 24 h
[9] = different concentrations of ticagrelor 48 h, dDAVP 20 nM during second 24 h, listed as Ticagrelor
[10] = ticagrelor 2 μM, listed as Ticagrelor
[11] = ticagrelor 10 μM, listed as Ticagrelor
[12] = ticagrelor 0.05 to 0.25% in food, 14 days

## Nc1c(S(=O)(=O)O)cc(Nc2ccc(Nc3ccccc3)c(S(=O)(=O)O)c2)c2c1C(=O)c1ccccc1C2=O [PSB-0739]
P2Y12 receptor
  expression of AVP: increased

## CC(=O)Oc1cc2c(s1)CCN(C(C(=O)C1CC1)c1ccccc1F)C2 (stereo not drawn) [prasugrel]
B6D2 mice
  effects shown in FIGS. 2-5 (urine output, urine osmolality, urinary AVP): could not be seen

## CCCSc1nc(N[C@@H]2C[C@H]2c2ccc(F)c(F)c2)c2nnn([C@@H]3C[C@H](OCCO)[C@@H](O)[C@H]3O)c2n1 [ticagrelor]
[1]
  side effects: uncontrolled bleeding from wounds or internal ulcers
[2]; 5 μM ticagrelor, 48 h, dDAVP 20 nM
  effect on desmopressin-induced cAMP levels: did not have any significant effect
[3]
  plasma ticagrelor level above which the relation to urine osmolality and AVP was more pronounced: above 1.30 μM
AQP3; [8]
  effect on dDAVP-induced AQP3 mRNA expression: augmented
AQP3; [9]
  effect on dDAVP-induced AQP3 mRNA expression: tendency for concentration-dependent enhancement
AQP3; ticagrelor 2 μM
  effect on dDAVP-induced AQP3 mRNA expression: augmentative effect was seen; also recorded: tendency to augment
AQP3; [10]
  effect on dDAVP-induced AQP3 mRNA expression: statistically significant
AQP3; ticagrelor 5 μM
  effect on dDAVP-induced increase in AQP3 expression: did not suppress
AQP3; ticagrelor 10 μM
  effect on dDAVP-induced AQP3 mRNA expression: more prominent
AQP3; [11]
  effect on dDAVP-induced AQP3 mRNA expression: statistically significant
AQP3; ticagrelor 25 μM
  effect on AQP3 gene expression: suppressing the gene expression to a very low level; also recorded: almost completely suppressed
B6D2 mice; 0.25% ticagrelor in the food
  urinary AVP (vasopressin): marked decrease
  urine concentrating ability: significant reduction
B6D2 mice; lower doses of ticagrelor in the food
  urinary AVP: minimal effect
B6D2 mice; [12]
  urine osmolality: decrease
  urine output: increase
B6D2 mice; ticagrelor 0.05 to 0.25% in food, 14 days, 24-hour urine, normal mice
  urinary AVP excretion: dose-related decrease; also recorded: dose-dependent decrease
B6D2 mice; ticagrelor 0.05 to 0.25% in food, 14 days, assessed by urine output and osmolality
  urinary concentrating ability: dose-related decrease; also recorded: dose-dependent decrease
AQP2; [8]
  effect on dDAVP-induced AQP2 mRNA expression: augmented
AQP2; [9]
  effect on dDAVP-induced AQP2 mRNA expression: tendency for concentration-dependent enhancement
AQP2; ticagrelor 2 μM
  effect on dDAVP-induced AQP2 mRNA expression: augmentative effect was seen; also recorded: tendency to augment
AQP2; [10]
  effect on dDAVP-induced AQP2 mRNA expression: statistically significant
AQP2; ticagrelor 5 μM
  effect on dDAVP-induced increase in AQP2 expression: did not suppress
AQP2; ticagrelor 10 μM
  effect on dDAVP-induced AQP2 mRNA expression: more prominent
AQP2; [11]
  effect on dDAVP-induced AQP2 mRNA expression: statistically significant
AQP2; ticagrelor 25 μM
  effect on AQP2 gene expression: suppressing the gene expression to a very low level; also recorded: almost completely suppressed
[4]
  proliferation of medullary collecting duct cells: decrease

## Cc1ccccc1C(=O)Nc1ccc(C(=O)N2CCCC(N(C)C)c3ccccc32)cc1 (stereo not drawn) [OPC-31260]
Rodent models of ADPKD
  cystogenesis: consistently inhibited

## COC(=O)[C@H](c1ccccc1Cl)N1CCc2sccc2C1 [clopidogrel, clopidogrel bisulfate]
B6D2 mice
  effects shown in FIGS. 2-5 (urine output, urine osmolality, urinary AVP): could not be seen
B6D2 mice; mouse, in vivo
  effect on the production of AVP by the hypothalamus: did not have such an effect
[5]
  lithium-induced NDI: significantly ameliorate

## NC(=O)CC[C@@H]1NC(=O)[C@H](Cc2ccccc2)NC(=O)[C@H](Cc2ccc(O)cc2)NC(=O)CCSSC[C@@H](C(=O)N2CCC[C@H]2C(=O)N[C@H](CCCN=C(N)N)C(=O)NCC(N)=O)NC(=O)[C@H](CC(N)=O)NC1=O [desmopressin, Desmopressin]
[2]; 20 nM desmopressin, IMCD cells
  increase in cellular cAMP levels: 3.6 fold

## Cc1ccccc1C(=O)Nc1ccc(C(=O)N2CCCC(O)c3cc(Cl)ccc32)c(C)c1 (stereo not drawn) [tolvaptan]
CYP3A4 system
  metabolism: metabolized by the CYP3A4 system
[1]
  side effects: severe polyuria (loss of water in the urine), nocturia (frequent urination in the night), thirst and dry mouth; also recorded: constipation, loss of appetite, dry skin, nausea, vomiting, and potential for acute liver failure
Rodent models of ADPKD; experimental models of ADPKD
  cyst growth: slow down the cyst growth
Rodent models of ADPKD
  cystogenesis: consistently inhibited
ADPKD
  efficacy for the treatment of ADPKD: established
Vasopressin V2 receptor
  endogenous production of AVP: increased
[6]
  pharmacokinetics: dose-related pharmacokinetics, it is unpredictable in ADPKD patients
[7]
  optimum concentration in food: 0.10%
